ED50 data for one molecule are collected here from patent US4260805A, “1-Descarboxy-1-ketoester (ketoacid)-prostaglandins” (American Cyanamid Company, priority 1979, dated 1981).

The assay concerns bronchospasms elicited by intravenous injections of acetylcholine. In words: Bronchodilator activity against bronchospasm elicited by acetylcholine, Konzett procedure. It counts as in vivo, guinea pigs. The following applies: Cavia porcellus; spasmogen acetylcholine; three logarithmic cumulative intravenous doses; guinea pig. The procedure:
The compounds of this invention are useful as bronchodilators for the treatment of asthma and chronic bronchitis. Bronchodilator activity is determined in guinea pigs against bronchospasms elicited by intravenous injections of 5-hydroxytryptamine, histamine or acetylcholine by the Konzett procedure. [See J. Lulling, P. Lievens, F. El Sayed and J. Prignot, Arzneimittel-Forschung, 18, 955 (1968).]
In Table which follows bronchodilator activity for representative compounds of this invention against one or more of three spasmogenic agents is expressed as an ED50 determined from the results obtained with three logarithmic cummulative intravenous doses. In this assay, these compounds of this invention provide an effect of longer duration than does natural 1-PGE1 or 1-PGE2.

Each structure is given as a SMILES string. A value given as a limit tells only on which side of the number the result lay.

Regarding `CCCCCC(C)(O)/C=C/[C@H]1[C@H](O)CC(=O)[C@@H]1CCCCCCC(=O)C(=O)OCC` (relative stereo) [dl-1,9-dioxo-1-carbethoxy-11α,15-dihydroxy-15-methyl-13-trans-prostene], the ED50 (usually the midpoint of the dose-response relation) was more than 3.2 mg/kg.
